This note sets out measurements from patent US4663326A, “Pyrazolo[4,3-d]pyrimidine-5,7-(4H,6H)dione or -5-thione-7-one analogs” (Warner-Lambert Company, priority 1985, dated 1987).

The assay relates to histamine. Nature of the assay: Bronchodilator test (BCA), histamine spasmogen, guinea pigs. It is filed as in vivo, Hartley Guinea Pigs. Set-up: key: Active. The settings on record: 50 mg/kg. An excerpt: The compounds of this invention may be determined to have antiallergy activity by a standard laboratory means employing the bronchodilator test (BCA) readily accepted as a standard for antiallergy activity, which is described in Siegmund, H. O., et al (J. Pharmacol. and Exptl., 90:254, 1949 and Herxheimer, H., J. Physiol., 117: 252-255, 1952). Thus, antiallergy activity was found for compounds of this invention by this BCA test using Hartley Guinea Pigs by the procedures as described below.
Naive (BCA) pigs are exposed to spasmogen for ten minutes by means of a De Vilbiss number 40 nebulizer positioned at the back of a closed, six unit plexiglas chamger (19×12.5×9"). Air flow is adjusted to give a pressure of 10 lbs/in; six animals per treatment are averaged, and the mean value for compound treated animals is compared to that for animals treated with vehicle. […]
The spasmogen may be acetylcholine chloride (0.3%), histamine (0.1%), methacholine chloride (Mecholyl) (0.1%) or serotonin creatinine sulfate. Each nebulizer dispenses 0.2 cc/minute.

For the molecule `Cc1nn(C)c2c(=O)[nH]c(=O)[nH]c12` [Example 1, 1,3-Dimethylpyrazolo[4,3-d]pyrimidine-5,7-(4H, 6H)dione], the “BCA Results, Ratings” value is listed as “A”.
